This is an account of results in article PMC10459521, “Unfolding the Antibacterial Activity and Acetylcholinesterase Inhibition Potential of Benzofuran-Triazole Hybrids: Synthesis, Antibacterial, Acetylcholinesterase Inhibition, and Molecular Docking Studies” (Molecules, 2023).

Values after ≈ are worked out from the molar mass of the structure shown. Like-named read-outs stand apart in the source and are kept apart here.

The term IC50 denotes the concentration needed to halve the response being measured. Broadly, the MIC is the lowest concentration found to suppress growth. For orientation: zone of inhibition means the extent of the growth-free halo in a diffusion test. Low readings indicate a weaker effect on the plate, high ones a stronger effect on the plate. As usually defined, the inhibition is the drop in the measured response relative to a control, in per cent. Low readings indicate a response near the control, high ones a response far below the control.

One experiment relates to AChE. As to conditions: Figure 2; cited from earlier work.
The subject of the next experiment is B. subtilis QB-928. In words: Antibacterial assay, disc diffusion method (inhibition zone and MIC). Type of experiment: cell-based. Conditions: for Inhibition Zone: disc diffusion; for Inhibition Zone / zone of inhibition at 25 µg/disc: 25 μg per disc, includes 5.6 mm disc diameter; for zone of inhibition at 25 µg/disc: QB928, disc diffusion. The procedure: (§1) The evaluation of in vitro antibacterial activity of synthesized compounds was performed against two bacterial strains, namely Gram +ve B. subtilis QB-928 and Gram −ve E. coli AB-274 using the disc diffusion method.
The antibacterial potential of all targeted compounds was evaluated using the disc diffusion method. A suspension of 100 μL containing 10^8 cfu/mL of bacteria was applied on nutrient agar media with the support of a sterilized loop. The compound solution was infused into sterilized filter paper discs (5.6 mm in diameter) at a particular concentration (25 μg/100 μL) in chloroform. The standard penicillin (25 μg per disc) was utilized as a positive control for antibacterial assay. These discs were carefully placed on agar which had originally been […] with selected bacterial cells. The agar culture plates were stored at 4 °C for 1 h and then the bacterial culture plate was incubated at 27 °C for 24 h. The inhibition zone was determined in millimeters (including the 5.6 mm disc diameter) with a reference control.

The subject of a further experiment is E. coli AB-274. The experiment is described as above. Type of experiment: cell-based. As to conditions: for Inhibition Zone / zone of inhibition at 25 µg/disc: disc diffusion, 25 μg per disc, includes 5.6 mm disc diameter. The protocol: as §1
The antibacterial potential of all targeted compounds was evaluated using the disc diffusion method. A suspension of 100 μL containing 10^8 cfu/mL of bacteria was applied on nutrient agar media with the support of a sterilized loop. […] The standard penicillin (25 μg per disc) was utilized as a positive control for antibacterial assay. These discs were carefully placed on agar which had originally been […] with selected bacterial cells. The agar culture plates were stored at 4 °C for 1 h and then the bacterial culture plate was incubated at 27 °C for 24 h. […]
Background: In agar diffusion tests the substance spreads into inoculated agar from a disc or well.

The target of experiment [1] is acetylcholinesterase (AChE) (Homo sapiens, UniProt P22303). In words: AChE inhibition assay (modified Ellman's method). Type of experiment: biochemical. As to conditions: for inhibition at 500 µM: 0.5 mM; for IC50: Ellman's method. The procedure: The inhibitory effects of all synthesized derivatives on AChE activities were measured using a modified Ellman’s method. This experimental study used DTNB (5,5′-dithio-bis(2-nitro-benzoic)acid) and AChI as the […]. The tested compounds (10 µL; […]) were mixed with AChE (50 µL; 38 U) solution and incubated for 10 min at 25 °C. DTNB (50 µL; 0.3 mM) was then added. The transfer of AChI (200 µL; 50 mM Tris/HCl buffer pH = 8) initiated the reaction. A spectrophotometer recorded the hydrolysis of AChI by the formation of yellow 5-thio-2-nitrobenzoate anions as a result of the reaction of DTNB with thiocholine at a wavelength of 412 nm. […] The given formula was used to calculate the (%) inhibition: Inhibition %=Control−Test/Control×100
acetylcholinesterase (AChE), sequence (P22303 32-614): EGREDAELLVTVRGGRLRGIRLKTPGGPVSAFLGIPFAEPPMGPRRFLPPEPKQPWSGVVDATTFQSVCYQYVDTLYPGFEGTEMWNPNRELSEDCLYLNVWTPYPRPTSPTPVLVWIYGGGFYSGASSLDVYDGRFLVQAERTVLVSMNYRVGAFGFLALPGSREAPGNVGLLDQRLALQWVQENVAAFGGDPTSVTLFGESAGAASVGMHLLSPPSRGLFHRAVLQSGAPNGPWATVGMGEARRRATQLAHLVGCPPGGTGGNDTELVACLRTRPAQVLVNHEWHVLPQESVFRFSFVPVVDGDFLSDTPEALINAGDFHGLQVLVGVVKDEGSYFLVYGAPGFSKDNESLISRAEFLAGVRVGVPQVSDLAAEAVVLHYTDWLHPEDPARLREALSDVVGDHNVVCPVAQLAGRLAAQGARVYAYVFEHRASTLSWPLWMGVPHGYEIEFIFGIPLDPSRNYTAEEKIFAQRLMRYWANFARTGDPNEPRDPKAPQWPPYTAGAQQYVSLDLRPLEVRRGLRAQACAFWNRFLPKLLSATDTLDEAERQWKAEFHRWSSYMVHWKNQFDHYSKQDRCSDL
IC50 values were calculated using data from GraphPad Prism 5 software.

Setting [2] is: Escherichia coli, AB274, E. coli.
[3] abbreviates: Bacillus subtilis, QB928, read-out: MIC.
Setting [4] is: Escherichia coli, AB274, E. coli, read-out: MIC.

With `Cc1cc(C)cc(C[n+]2ccc(-c3cc4ccccc4o3)cc2)c1` [Compound 1a], the IC50 in the experiment with AChE was 4.1 ± 1.5 nM.
Turning to `O=C(NCCCNc1c2c(nc3cc(Cl)ccc13)CCCC2)c1cc2ccccc2o1` [Compound 1b], the IC50 in the experiment on AChE was 120 nM.
`COc1cccc2cc(C(=O)NCCCCNC(=O)c3cc4ccccc4o3)c(=O)oc12` [Compound 1c]: the IC50 in the experiment on AChE was 180 ± 50 nM.
For the compound `COc1cccc2cc(C(=O)NCCn3ccc(=O)c(OCc4ccccc4)c3C)oc12` [Compound 1d], in the experiment with AChE, the IC50 is 76000 nM.
For `O=C(CSc1nnc(-c2cc3cc(Br)ccc3o2)n1-c1ccccc1)Nc1ccccc1` [Compound 10a, 2-((5-(5-bromobenzofuran-2-yl)-4-phenyl-4H-1,2,4-triazol-3-yl)thio)-N-phenylacetamide], the “Inhibition Zone” value with B. subtilis QB-928 was “no detectable results”. In the experiment with E. coli AB-274 (E. coli), the MIC stood at 1.80 µg/mL (≈ 3.56 µM) and the “Inhibition Zone” value came out at 38 ± 1.50 mm. Also, the MIC with E. coli AB-274 (Escherichia coli, AB274) is 1.8 ± 0.25 µg/mL (≈ 3.56 µM). The compound further displayed a zone of inhibition at 25 µg/disc in the experiment with E. coli AB-274 (setting [2]) of 38 mm. In experiment [1], this compound registered an inhibition at 500 µM of 65.8 ± 1.5% and an IC50 of 880 ± 500 nM.
Turning to `Cc1ccc(NC(=O)CSc2nnc(-c3cc4cc(Br)ccc4o3)n2-c2ccccc2)cc1C` [Compound 10b, 2-((5-(5-Bromobenzofuran-2-yl)-4-phenyl-4H-1,2,4-triazol-3-yl)thio)-N-(3,4-dimethylphenyl)acetamide], the MIC against B. subtilis QB-928 turned out to be 1.25 µg/mL (≈ 2.34 µM); in the experiment on B. subtilis QB-928 (setting [3]) it was 1.25 ± 0.6 µg/mL (≈ 2.34 µM); in the experiment with E. coli AB-274 (setting [4]), 3.8 ± 2.1 µg/mL (≈ 7.12 µM). Also, the results for the zone of inhibition at 25 µg/disc with B. subtilis QB-928 (Bacillus subtilis) and in the experiment with E. coli AB-274 (setting [2]) were 42 mm and 11.5 mm, respectively. For the same compound, the “Inhibition Zone” value with B. subtilis QB-928 is 42 ± 1.00 mm; in the experiment on E. coli AB-274 (E. coli), 11.5 ± 1.40 mm. The same compound showed an inhibition at 500 µM in experiment [1] of 61.7 ± 1.5%. This compound also showed an IC50 in experiment [1] of 1500 ± 1000 nM.
In the case of `O=C(CSc1nnc(-c2cc3cc(Br)ccc3o2)n1-c1ccccc1)Nc1ccc([N+](=O)[O-])cc1` [Compound 10c, 2-((5-(5-Bromobenzofuran-2-yl)-4-phenyl-4H-1,2,4-triazol-3-yl)thio)-N-(4-nitrophenyl)acetamide], the “Inhibition Zone” value in the experiment on B. subtilis QB-928 is “no detectable results”. For the same compound, the “Inhibition Zone” value in the experiment with E. coli AB-274 (E. coli) was found to be 28 ± 0.00 mm. This compound came in with a zone of inhibition at 25 µg/disc in the experiment on E. coli AB-274 (setting [2]) of 28 mm. In addition, the MIC in the experiment with E. coli AB-274 (setting [4]) was found to be 2.5 ± 0.7 µg/mL (≈ 4.54 µM). For the same compound, in experiment [1], the inhibition at 500 µM amounted to 55.9 ± 1.25% and the IC50 is 2280 ± 1750 nM.
Regarding `COc1ccc(OC)c(NC(=O)CSc2nnc(-c3cc4cc(Br)ccc4o3)n2-c2ccc(Cl)c(Cl)c2)c1` [Compound 10d, 2-((5-(5-Bromobenzofuran-2-yl)-4-(3,4-dichlorophenyl)-4H-1,2,4-triazol-3-yl)thio)-N-(2,5-dimethoxyphenyl)acetamide], the zone of inhibition at 25 µg/disc in the experiment with B. subtilis QB-928 (Bacillus subtilis) was determined as 11 mm; with E. coli AB-274 (setting [2]), 12 mm. For the same compound, the MIC in the experiment with B. subtilis QB-928 (setting [3]) worked out at 9.25 ± 1.25 µg/mL (≈ 14.6 µM); in the experiment on E. coli AB-274 (setting [4]), 16 ± 1 µg/mL (≈ 25.2 µM). Besides, the “Inhibition Zone” value in the experiment on B. subtilis QB-928 was 11 ± 0.50 mm; with E. coli AB-274 (E. coli), 12 ± 0.65 mm. Moreover, in experiment [1], at 500 µM the inhibition was 81.45 ± 0.5%. The same compound came in with an IC50 in experiment [1] of 550 ± 1000 nM.
Consider `O=C(CSc1nnc(-c2cc3cc(Br)ccc3o2)n1-c1ccc(Cl)c(Cl)c1)Nc1ccc(Cl)c(Cl)c1` [Compound 10e, 2-((5-(5-Bromobenzofuran-2-yl)-4-(3,4-dichlorophenyl)-4H-1,2,4-triazol-3-yl)thio)-N-(3,4-dichlorophenyl)acetamide], for which the zone of inhibition at 25 µg/disc in the experiment on B. subtilis QB-928 (Bacillus subtilis) was 8 mm; in the experiment with E. coli AB-274 (setting [2]), 24 mm. The results for the MIC in the experiment with B. subtilis QB-928 (setting [3]) and with E. coli AB-274 (setting [4]) were 14 ± 1.8 µg/mL (≈ 21.8 µM) and 2.5 ± 1.4 µg/mL (≈ 3.89 µM), respectively. Besides, the “Inhibition Zone” value is 8 ± 0.75 mm with B. subtilis QB-928 and 24 ± 0.50 mm with E. coli AB-274 (E. coli). In experiment [1], this compound gave an inhibition at 500 µM of 51.2 ± 1.24%. For the same compound, in experiment [1], 1980 ± 250 nM corresponded to half-maximal inhibition (IC50).
penicillin [reference compound]: the MIC against B. subtilis QB-928 was found to be 1 ± 1.50 µg/mL; with B. subtilis QB-928 (listed as penicillin), 1 µg/mL; in the experiment with E. coli AB-274 (E. coli), 2.4 ± 1.00 µg/mL. Further, the figures for the “Inhibition Zone” value in the experiment on B. subtilis QB-928, in the experiment with B. subtilis QB-928 (listed as penicillin) and in the experiment on E. coli AB-274 (E. coli) were 18 ± 0.50 mm, 18 mm and 24 ± 0.50 mm, respectively.
